Data on one compound can be found in US10864192B2, “Compositions and methods for inhibiting brain trauma-induced neurodegeneration and related conditions” (priority 2016, dated 2020).

For the test, the target named is amyloid precursor protein (APP) (Mus musculus (Mouse), UniProt P12023). As to the kind of experiment: Amyloid precursor protein in primary cortical neurons (Western blot). The test is classed as cell-based. As to conditions: 48 hr. On the procedure:
Primary cortical neurons were harvested and isolated from mice, and then were cultured in line with methodologies known in the art. In brief, embryonic day 15-18 mouse pups were obtained from timed pregnant female mice (5 pups). Within a laminar flow cell culture hood, the brain was removed from these mouse pups and the meninges and blood vessels were carefully removed. […] Maintained on wet ice, individual cells were then isolated by titrating some 10 times to dissociate cells by use of using a glass pasture pipette with a fire polished tip. […]
Following maintenance in cell culture (>24 hr) primary cortical neurons were challenged to known concentrations of experimental drugs for 48 hr, or vehicle (culture media) alone. […] Quantification of select proteins, for example AAP was undertaken by Western Blotting using the APP N-terminal antibody (22C11) obtained from Chemicon (Temecula, Calif.). The housekeeping protein β-actin quantified in the same samples to allow normalization, and was probed with anti-β-actin (Chemicon). The Western blots were developed by using chemiluminescence (PIERCE), were visualized with a Phospholmager (BioRad, Hercules, Calif.), and resulting bands were quantified by QuantityOne software (BioRad).
In general terms: Immunoblotting shows a protein as a band on a membrane.

Chain of amyloid precursor protein (APP) (P12023 whole entry, looked up): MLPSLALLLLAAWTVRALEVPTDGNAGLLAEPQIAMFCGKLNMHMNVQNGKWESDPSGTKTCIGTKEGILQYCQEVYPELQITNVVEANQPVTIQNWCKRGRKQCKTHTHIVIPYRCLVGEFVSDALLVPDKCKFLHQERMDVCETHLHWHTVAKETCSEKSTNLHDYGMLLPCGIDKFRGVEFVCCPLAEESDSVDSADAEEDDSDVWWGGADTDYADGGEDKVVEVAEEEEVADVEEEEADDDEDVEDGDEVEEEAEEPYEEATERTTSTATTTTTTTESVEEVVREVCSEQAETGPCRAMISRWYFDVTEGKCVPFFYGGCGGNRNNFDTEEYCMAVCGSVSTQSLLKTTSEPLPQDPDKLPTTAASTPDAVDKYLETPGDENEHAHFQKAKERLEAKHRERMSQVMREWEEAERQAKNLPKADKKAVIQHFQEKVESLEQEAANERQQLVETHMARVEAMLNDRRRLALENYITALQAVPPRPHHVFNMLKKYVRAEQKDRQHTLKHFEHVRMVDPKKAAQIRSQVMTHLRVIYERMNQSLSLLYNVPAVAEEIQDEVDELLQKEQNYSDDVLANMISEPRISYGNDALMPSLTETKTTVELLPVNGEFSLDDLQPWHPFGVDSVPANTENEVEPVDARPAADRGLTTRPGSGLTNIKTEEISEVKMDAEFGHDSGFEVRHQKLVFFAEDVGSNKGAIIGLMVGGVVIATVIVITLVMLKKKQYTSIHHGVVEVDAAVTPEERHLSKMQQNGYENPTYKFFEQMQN

For `CN1CC[C@@]2(C)c3cc(OC(=O)Nc4ccccc4)ccc3N(C)[C@@H]12` [phenserine, (−)-phenylcarbamoyleseroline], the “amyloid precursor protein level” value is recorded as “inhibition of amyloid precursor protein”.
